Series [1] has as its system acetic acid stretching in mice. The series is described as follows: Acetic acid stretching method (analgesic effect in mice). The series is classed as in vivo. The settings on record: male mice, oral, 0.6% acetic acid i.p. 30 minutes later, counted for 10 minutes from 5 minutes after injection. As to the method:
Male mice were given orally with these compounds and 30 minutes later injected intraperitoneally with 0.1 ml/10 g of 0.6% acetic acid. The number of stretching was countered for 10 minutes from 5 minutes after injection of acetic acid. The value was expressed in the percentage of control.

The test system of series [2] is pain threshold of inflamed foot (beer yeast) in rats. The series is described as follows: Randall-Selitto method (analgesic effect in rat). Type of series: in vivo. The settings on record: male rats, oral, 2 hours after 20% beer yeast into subplantar area. How it is done: Male rats were administered orally with 2-propionyl-4-tert-butyl-6-aminomethylphenol hydrochloride 2 hours after injection of 0.1 ml of 20% suspension beer yeast into subplantar area of one hind paw. Pain threshold determination was made on the normal and inflamed foot, using apparatus similar to that described by Randall-Selitto. Pain threshold change was expressed as percentage of control.

Series [3] concerns Carrageenan-Induced Edema in Rat Paws. The series is described as follows: Carrageenan-induced edema in rat paws (anti-inflammatory effect). Type of series: in vivo. The settings on record: 3 h, oral, carrageenan injected one hour after dosing, swelling measured at third hour of carrageenan injection, read-out: % Inhibition of Paw Edema. As to the method: For example, in a laboratory experiment, one hour after oral administration with these compounds, the rats were subcutaneously injected with 0.1 ml of 1% carrageenan suspension on the plantar surface of the right hind paw. The swelling was measured at the third hour of carrageenan injection. Anti-inflammatory effect of the compounds was determined as percentage inhibition of the swelling, taking the swelling in the control groups as 100%.
For orientation: The carrageenan paw model is a standard test of acute inflammation.

The next series has as its system ulcer in rats. The series is described as follows: Sign of ulcer upon oral administration in rats. The series is classed as in vivo, rat. To be noted: 200 mg/kg.

These results are taken from patent US4245099A, “2-Acyl-6-aminomethylphenol derivatives” (Ono Pharmaceutical Co., Ltd., priority 1978, dated 1981).

Structures can show the parent of a compound that is named as a salt.

In the case of `CCC(=O)c1cc(C(C)(C)C)cc(CN)c1O.Cl` [2-Propionyl-4-tert-butyl-6-aminomethylphenol hydrochloride], the entries for the “% Inhibition (acetic acid stretching)” value in series [1] (10 mg/kg), in series [1] (20 mg/kg) and in series [1] (50 mg/kg) were 35.3%, 61.3% and 85.3%, respectively. In addition, the “% Inhibition (Randall-Selitto pain threshold change)” value amounted to 70% in series [2] (50 mg/kg) and 113% in series [2] (100 mg/kg). Moreover, in series [3], the inhibition in vivo at 30 mg/kg came out at 72.8%. Besides, in the series with ulcer in rats, the sign of ulcer result was “did not show any sign of ulcer”.

On to `CSCCC(=O)c1cc(C(C)(C)C)cc(CN)c1O` [2-(3-Methylthiopropionyl)-4-tert-butyl-6-aminomethylphenol hydrochloride], for which the inhibition in vivo at 30 mg/kg in series [3] is 29.3%.

As for `CCCC(=O)c1cc(C(C)(C)C)cc(CN)c1O` [2-Butyryl-4-tert-butyl-6-aminomethylphenol hydrochloride], in series [3], the inhibition in vivo at 30 mg/kg amounted to 34.1%.

Consider `CC(=O)c1c(O)c(CN)cc2c1CCCC2` [1-Acetyl-3-aminomethyl-5,6,7,8-tetrahydro-2-naphthol hydrochloride], for which the inhibition in vivo at 30 mg/kg in series [3] is 55.3%.

`CCC(=O)c1c(O)c(CN)cc2c1CCCC2` [1-Propionyl-3-aminomethyl-5,6,7,8-tetrahydro-2-naphthol hydrochloride]: the inhibition in vivo at 30 mg/kg in series [3] was determined as 37.4%.

On to `CC(C)(C)c1cc(CN)c(O)c(C(=O)c2ccc(Br)cc2)c1` [2-(4-Bromobenzoyl)-4-tert-butyl-6-aminomethylphenol hydrochloride], for which the inhibition in vivo at 30 mg/kg in series [3] worked out at 35%.

Turning to `CC(C)(C)c1cc(CN)c(O)c(C(=O)CCl)c1` [2-Chloroacetyl-4-tert-butyl-6-aminomethylphenol hydrochloride], the inhibition in vivo at 30 mg/kg in series [3] worked out at 59.2%.

Consider `CC(C)(C)c1cc(CN)c(O)c(C(=O)C2CCCCC2)c1` [2-Cyclohexylcarbonyl-4-tert-butyl-6-aminomethylphenol hydrochloride], for which the inhibition in vivo at 30 mg/kg in series [3] was 27.1%.

Regarding `CC(C)(C)c1cc(CN)c(O)c(C(=O)c2ccccc2)c1` [2-Benzoyl-4-tert-butyl-6-aminomethylphenol hydrochloride], in series [3], the inhibition in vivo at 30 mg/kg was determined as 47.6%.

For the compound `CC(C)C(=O)c1cc(C(C)(C)C)cc(CN)c1O.Cl` [2-Isobutyryl-4-tert-butyl-6-aminomethylphenol hydrochloride], the “% Inhibition (acetic acid stretching)” value in series [1] (50 mg/kg) stood at 49.7%. For the same compound, the inhibition in vivo at 30 mg/kg in series [3] was determined as 55.5%.

Turning to `CC(C)(C)c1cc(CN)c(O)c(C(=O)Cc2ccccc2)c1` [2-Phenylacetyl-4-tert-butyl-6-aminomethylphenolhydrochloride], in series [3], the inhibition in vivo at 30 mg/kg stood at 20.3%.

Turning to `CC(=O)c1cc2c(c(CN)c1O)CCCC2C` (centres unmarked) [1-Aminomethyl-3-acetyl-5-methyl-5,6,7,8-tetrahydro-2-naphthol hydrochloride], in series [3], the inhibition in vivo at 30 mg/kg was determined as 66.3%.

As to `CC(=O)c1cc(C(C)(C)C)cc(CN)c1O` [2-Acetyl-4-tert-butyl-6-aminomethylphenol hydrochloride], the inhibition in vivo at 30 mg/kg in series [3] was 46.7%.
